US20130053381A1, “2,4-DIOXO-1,4-DIHYDRO-2H-QUINAZOLIN-3-YL-SULFONAMIDE DERIVATIVES” (NOVARTIS AG, priority 2010, published 2013)

tested on: OF1 mice; test: Maximal electroshock test (MES Test); type: in vivo; settings: Mus musculus, po; 50 mg/kg, p.o., pre-treatment time −0.5 h (footnote d); read-out: %-Protection
Procedure: Compounds of the invention were tested in OF1 mice using the maximal electroshock test (MES Test) described in detail by Schmutz et al., Naunyn-Schmiedeberg's Arch Pharmacol 1990, 342, 61-66. Briefly, generalized tonic-clonic convulsions of the hind extremities were induced by passing electrical current through temporal electrodes (50 Hz, 18 mA, 0.2s). […] 30 mg/kg carbamazepine was used as a positive control; mice were classified as protected by a compound If the duration of the seizure lasted only 3 second or less. Five mice were used for each treatment condition and the percentage of protected mice was used as readout (i.e. a compound could give 0%, 20%, 40%, 60%, 80% or 100% protection). Usually, compounds of the invention or their parents were given at a dose of 50 mg/kg, p.o., 1 hour prior to induction of convulsions (i.e. “pre-treatment time −1 h”).
ED50 values (ED: effective dose) were calculated using GraphPad Prism, v4.02. after shock administration, mouse blood was collected for determination of compounds' blood exposure.

| Compound | responders at 50 mg/kg |
| --- | --- |
| CC(=O)N(n1c(=O)[nH]c2cc(C(C)C)c(-c3ccnn3C)cc2c1=O)S(C)(=O)=O [Example 3.01, N-Acetyl-N-[7-isopropyl-6-(2-methyl-2H-pyrazol-3-yl)-2,4-dioxo-1,4-dihydro-2H-quinazolin-3-yl]-methanesulfonamide] | 100% |

same assay, conditions: Mus musculus, po; 50 mg/kg, p.o., pre-treatment time −1 h; read-out: %-Protection

| Compound | responders at 50 mg/kg |
| --- | --- |
| CCCCC(=O)N(n1c(=O)[nH]c2cc(C(F)(F)F)c(-c3ccnn3C)cc2c1=O)S(C)(=O)=O [Example 1.01, N-[6-(2-Methyl-2H-pyrazol-3-yl)-2,4-dioxo-7-trifluoromethyl-1,4-dihydro-2H-guinazolin-3-yl]-N-pentanoyl-methanesulfonamide] | 40% |
| CC(C)C(=O)N(n1c(=O)[nH]c2cc(C(F)(F)F)c(-c3ccnn3C)cc2c1=O)S(C)(=O)=O [Example 1.02, N-Isobutyryl-N-[6-(2-methyl-2H-pyrazol-3-yl)-2,4-dioxo-7-trifluoromethyl-1,4-dihydro-2H-quinazolin-3-yl]-methanesulfonamide] | 100% |
| CCCC(=O)N(n1c(=O)[nH]c2cc(C(F)(F)F)c(-c3ccnn3C)cc2c1=O)S(C)(=O)=O [Example 1.03, N-Butyryl-N-[6-(2-methyl-2H-pyrazol-3-yl)-2,4-dioxo-7-trifluoromethyl-1,4-dihydro-2H-quinazolin-3-yl]-methanesulfonamide] | 100% |
| CCCCCC(=O)N(n1c(=O)[nH]c2cc(C(F)(F)F)c(-c3ccnn3C)cc2c1=O)S(C)(=O)=O [Example 1.04, N-Hexanoyl-N-[6-(2-methyl-2H-pyrazol-3-yl)-2,4-dioxo-7-trifluoromethyl-1,4-dihydro-2H-quinazolin-3-yl]-methanesulfonamide] | 80% |
| COC(=O)N(n1c(=O)[nH]c2cc(C(F)(F)F)c(-c3ccnn3C)cc2c1=O)S(C)(=O)=O [Example 1.05, Methanesulfonyl-[6-(2-methyl-2H-pyrazol-3-yl)-2,4-dioxo-7-trifluoromethyl-1,4-dihydro-2H-quinazolin-3-yl]-carbamic acid methyl ester] | 80% |
| CC(C)COC(=O)N(n1c(=O)[nH]c2cc(C(F)(F)F)c(-c3ccnn3C)cc2c1=O)S(C)(=O)=O [Example 1.06, Methanesulfonyl-[6-(2-methyl-2H-pyrazol-3-yl)-2,4-dioxo-7-trifluoromethyl-1,4-dihydro-2H-quinazolin-3-yl]-carbamic acid isobutyl ester] | 60% |
| COCCOC(=O)N(n1c(=O)[nH]c2cc(C(F)(F)F)c(-c3ccnn3C)cc2c1=O)S(C)(=O)=O [Example 1.07, Methanesulfonyl-[6-(2-methyl-2H-pyrazol-3-yl)-2,4-dioxo-7-trifluoromethyl-1,4-dihydro-2H-quinazolin-3-yl]-carbamic acid 2-methoxy-ethyl ester] | 80% |
| CCc1cc2[nH]c(=O)n(N(C(C)=O)S(C)(=O)=O)c(=O)c2cc1-c1ccnn1C [Example 2.01, N-Acetyl-N-[7-ethyl-6-(2-methyl-2H-pyrazol-3-yl)-2,4-dioxo-1,4-dihydro-2H-quinazolin-3-yl]-methanesulfonamide] | 100% |
| CCCOC(=O)N(n1c(=O)[nH]c2cc(CC)c(-c3ccnn3C)cc2c1=O)S(C)(=O)=O [Example 2.06, Methanesulfonyl-[7-ethyl-6-(2-methyl-2H-pyrazol-3-yl)-2,4-dioxo-1,4-dihydro-2H-quinazolin-3-yl]-carbamic acid propyl ester] | 60% |
| CCc1cc2[nH]c(=O)n(N(C(=O)OC)S(C)(=O)=O)c(=O)c2cc1-c1ccnn1C [Example 2.07, Methanesulfonyl-[7-ethyl-6-(2-methyl-2H-pyrazol-3-yl)-2,4-dioxo-1,4-dihydro-2H-quinazolin-3-yl]-carbamic acid methyl ester] | 100% |
| CCOC(=O)N(n1c(=O)[nH]c2cc(CC)c(-c3ccnn3C)cc2c1=O)S(C)(=O)=O [Example 2.08, Methanesulfonyl-[7-ethyl-6-(2-methyl-2H-pyrazol-3-yl)-2,4-dioxo-1,4-dihydro-2H-quinazolin-3-yl]-carbamic acid ethyl ester] | 80% |
| CCCCOC(=O)N(n1c(=O)[nH]c2cc(CC)c(-c3ccnn3C)cc2c1=O)S(C)(=O)=O [Example 2.09, Methanesulfonyl-[7-ethyl-6-(2-methyl-2H-pyrazol-3-yl)-2,4-dioxo-1,4-dihydro-2H-quinazolin-3-yl]-carbamic acid butyl ester] | 40% |
| CCC(=O)N(n1c(=O)[nH]c2cc(CC)c(-c3ccnn3C)cc2c1=O)S(C)(=O)=O [Example 2.10, N-[7-Ethyl-6-(2-methyl-2H-pyrazol-3-yl)-2,4-dioxo-1,4-dihydro-2H-quinazolin-3-yl]-N-propionyl-methanesulfonamide] | 100% |
| CCCCC(=O)N(n1c(=O)[nH]c2cc(CC)c(-c3ccnn3C)cc2c1=O)S(C)(=O)=O [Example 2.11, N-[7-Ethyl-6-(2-methyl-2H-pyrazol-3-yl)-2,4-dioxo-1,4-dihydro-2H-quinazolin-3-yl]-N-pentanoyl-methanesulfonamide] | 100% |
| CCc1cc2[nH]c(=O)n(N(C(=O)OC(C)C)S(C)(=O)=O)c(=O)c2cc1-c1ccnn1C [Example 2.12, Methanesulfonyl-[7-ethyl-6-(2-methyl-2H-pyrazol-3-yl)-2,4-dioxo-1,4-dihydro-2H-quinazolin-3-yl]-carbamic acid isopropyl ester] | 60% |
| CCCCCOC(=O)N(n1c(=O)[nH]c2cc(CC)c(-c3ccnn3C)cc2c1=O)S(C)(=O)=O [Example 2.13, Methanesulfonyl-[7-ethyl-6-(2-methyl-2H-pyrazol-3-yl)-2,4-dioxo-1,4-dihydro-2H-quinazolin-3-yl]-carbamic acid pentyl ester] | 20% |
| CCc1cc2c(cc1-c1ccnn1C)c(=O)n(N(C(C)=O)S(C)(=O)=O)c(=O)n2C(C)=O [Example 2.14, N-Acetyl-N-[1-acetyl-7-ethyl-6-(2-methyl-2H-pyrazol-3-yl)-2,4-dioxo-1,4-dihydro-2H-quinazolin-3-yl]-methanesulfonamide] | 100% |

same assay, conditions: Mus musculus, po; Dose: 15 mg/kg, p.o. (footnote c), pre-treatment time −1 h; read-out: %-Protection

| Compound | responders at 15 mg/kg |
| --- | --- |
| COCCOC(=O)N(n1c(=O)[nH]c2cc(C(C)C)c(-c3ccnn3C)cc2c1=O)S(C)(=O)=O [Example 3.02, [7-Isopropyl-6-(2-methyl-2H-pyrazol-3-yl)-2,4-dioxo-1,4-dihydro-2H-quinazolin-3-yl]-methanesulfonyl-carbamic acid 2-methoxy-ethyl ester] | 100% |

same assay, conditions: Mus musculus, po; Dose: 25 mg/kg, p.o. (footnote b), pre-treatment time −1 h; read-out: %-Protection

| Compound | responders at 25 mg/kg |
| --- | --- |
| CCCC(=O)N(n1c(=O)[nH]c2cc(CC)c(-c3ccnn3C)cc2c1=O)S(C)(=O)=O [Example 2.02, N-Butyryl-N-[7-ethyl-6-(2-methyl-2H-pyrazol-3-yl)-2,4-dioxo-1,4-dihydro-2H-quinazolin-3-yl]-methanesulfonamide] | 100% |
| CCCCCC(=O)N(n1c(=O)[nH]c2cc(CC)c(-c3ccnn3C)cc2c1=O)S(C)(=O)=O [Example 2.03, N-[7-Ethyl-6-(2-methyl-2H-pyrazol-3-yl)-2,4-dioxo-1,4-dihydro-2H-quinazolin-3-yl]-N-hexanoyl-methanesulfonamide] | 100% |
| CCc1cc2[nH]c(=O)n(N(C(=O)OCC(C)C)S(C)(=O)=O)c(=O)c2cc1-c1ccnn1C [Example 2.04, Methanesulfonyl-[7-ethyl-6-(2-methyl-2H-pyrazol-3-yl)-2,4-dioxo-1,4-dihydro-2H-quinazolin-3-yl]-carbamic acid isobutyl ester] | 80% |
| CCc1cc2[nH]c(=O)n(N(C(=O)OCCOC)S(C)(=O)=O)c(=O)c2cc1-c1ccnn1C [Example 2.05, Methanesulfonyl-[7-ethyl-6-(2-methyl-2H-pyrazol-3-yl)-2,4-dioxo-1,4-dihydro-2H-quinazolin-3-yl]-carbamic acid 2-methoxy-ethyl ester] | 80% |

same assay, conditions: Mus musculus, po; Table 5; 50 mg/kg, p.o., pre-treatment time −0.25 h; read-out: %-Protection

| Compound | responders at 50 mg/kg |
| --- | --- |
| CC(=O)N(n1c(=O)[nH]c2cc(C(C)C)c(-c3ccnn3C)cc2c1=O)S(C)(=O)=O [Example 3.01, N-Acetyl-N-[7-isopropyl-6-(2-methyl-2H-pyrazol-3-yl)-2,4-dioxo-1,4-dihydro-2H-quinazolin-3-yl]-methanesulfonamide] | 40% |

same assay, conditions: Mus musculus, po; Table 5; 50 mg/kg, p.o., pre-treatment time −1 h; read-out: %-Protection

| Compound | responders at 50 mg/kg |
| --- | --- |
| CC(=O)N(n1c(=O)[nH]c2cc(C(C)C)c(-c3ccnn3C)cc2c1=O)S(C)(=O)=O [Example 3.01, N-Acetyl-N-[7-isopropyl-6-(2-methyl-2H-pyrazol-3-yl)-2,4-dioxo-1,4-dihydro-2H-quinazolin-3-yl]-methanesulfonamide] | 100% |

same assay, conditions: Mus musculus; dose of up to 50 mg/kg, p.o., 1 hour prior to induction of convulsions; read-out: %-Protection

| Compound | responders at 50 mg/kg |
| --- | --- |
| CCOC(=O)CCC(=O)N(n1c(=O)[nH]c2cc(C(F)(F)F)c(-c3ccnn3C(C)C)cc2c1=O)S(C)(=O)=O [4-{[6-(2-Isopropyl-2H-pyrazol-3-yl)-2,4-dioxo-7-trifluoromethyl-1,4-dihydro-2H-quinazolin-3-yl]-methanesulfonyl-amino}-4-oxo-butyric acid ethyl ester] | 0% |
| CCn1nccc1-c1cc2c(=O)n(N(C(=O)COC(C)=O)S(C)(=O)=O)c(=O)[nH]c2cc1C(F)(F)F [Acetic acid 2-{[6-(2-ethyl-2H-pyrazol-3-yl)-2,4-dioxo-7-trifluoromethyl-1,4-dihydro-2H-quinazolin-3-yl]-methanesulfonyl-amino}-2-oxo-ethyl ester] | 0% |
| CC(=O)OCC(=O)N(n1c(=O)[nH]c2cc(C(F)(F)F)c(-c3ccnn3C(C)C)cc2c1=O)S(C)(=O)=O [Acetic acid 2-{[6-(2-isopropyl-2H-pyrazol-3-yl)-2,4-dioxo-7-trifluoromethyl-1,4-dihydro-2H-quinazolin-3-yl]-methanesulfonyl-amino}-2-oxo-ethyl ester] | 0% |

same assay, conditions: Table 5; 50 mg/kg, p.o., pre-treatment time −0.5 h

| Compound | %-Protection |
| --- | --- |
| CC(=O)N(n1c(=O)[nH]c2cc(C(C)C)c(-c3ccnn3C)cc2c1=O)S(C)(=O)=O [Example 3.01, N-Acetyl-N-[7-isopropyl-6-(2-methyl-2H-pyrazol-3-yl)-2,4-dioxo-1,4-dihydro-2H-quinazolin-3-yl]-methanesulfonamide] | 100% |
